The experiment deals with 439559-082-T-J2-PDC spheroid viability. The experiment can be described thus: Anticancer human tumor 439559-082-T-J2-PDC patient-derived colon adenocarcinoma cell line growth inhibition [POLQ]. Conditions: spheroids with HUVEC and MSC; for viability, T/C: stronger effect = lower value. The gist of the method:
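Growth inhibition in 3D: complex spheroids (tumor PDC, HUVEC, MSC) treated with POLQ inhibitor combinations; where Cmax unknown, highest tested concentration 10 microM, except SN-38 at 1 microM.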

[1] abbreviates: curve of first compound, second compound 0.0316 µM.
The mark [2] stands for this setting: curve of first compound, second compound 0.1 µM.
The mark [3] stands for this setting: curve of first compound, second compound 0.316 µM.
The mark [4] stands for this setting: curve of first compound, second compound 1 µM.
[5] abbreviates: curve of first compound, second compound 3.16 µM.
[6] abbreviates: curve of first compound, second compound 10 µM.

The values that follow come from PubChem BioAssay AID1963841 (Molecular Pharmacology Branch, DTP, NCI, 2024).

The structures appear in SMILES notation. Where “and” joins values, the source holds several entries; their conditions need not be identical. Equal values may be shown once. Some results are limits rather than exact numbers.
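Further: spheroids exposed to compounds for seven days before readout.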
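Wherever viability, T/C is given: 100% = DMSO vehicle control viability.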

With `CC(=O)O[C@H]1C(=O)[C@@]2(C)[C@H]([C@H](OC(=O)c3ccccc3)[C@]3(O)C[C@H](OC(=O)[C@H](O)[C@@H](NC(=O)c4ccccc4)c4ccccc4)C(C)=C1C3(C)C)[C@]1(OC(C)=O)CO[C@@H]1C[C@@H]2O` + COC1C(OC(N)=O)C(O)C(Oc2ccc3c(O)c(NC(=O)c4ccc(O)c(CC=C(C)C)c4)c(=O)oc3c2C)OC1(C)C, the IC50 by setting is: under setting [1], 1050 nM; under setting [2], 1480 nM; under setting [3], 1380 nM; under setting [4], 1500 nM; under setting [5], 1280 nM; under setting [6], 1530 nM. Further, the viability, T/C is, setting by setting: (second compound 0.0316 µM, first compound 0.00949 µM) 87.2%; (second compound 0.0316 µM, first compound 0.03 µM) 90.8%; (second compound 0.0316 µM, first compound 0.0949 µM) 78.8%; (second compound 0.0316 µM, first compound 0.3 µM) 77%; (second compound 0.0316 µM, first compound 0.949 µM) 49.9%; (second compound 0.0316 µM, first compound 3 µM) 39.4%. For the same compound, the viability, T/C is, setting by setting: (second compound 0.1 µM, first compound 0.00949 µM) 90.8%; (second compound 0.1 µM, first compound 0.03 µM) 88.4%; (second compound 0.1 µM, first compound 0.0949 µM) 80.6%; (second compound 0.1 µM, first compound 0.3 µM) 75.3%; (second compound 0.1 µM, first compound 0.949 µM) 57.1%; (second compound 0.1 µM, first compound 3 µM) 37.4%. Also, the viability, T/C runs as follows: (second compound 0.316 µM, first compound 0.00949 µM) 93.5%; (second compound 0.316 µM, first compound 0.03 µM) 89.6%; (second compound 0.316 µM, first compound 0.0949 µM) 80.4%; (second compound 0.316 µM, first compound 0.3 µM) 71%; (second compound 0.316 µM, first compound 0.949 µM) 56.5%; (second compound 0.316 µM, first compound 3 µM) 37.1%. Also, the viability, T/C worked out at 90.1% (second compound 1 µM, first compound 0.00949 µM); 87.2% (second compound 1 µM, first compound 0.03 µM); 79.3% (second compound 1 µM, first compound 0.0949 µM); 73% (second compound 1 µM, first compound 0.3 µM); 57.8% (second compound 1 µM, first compound 0.949 µM); 38.5% (second compound 1 µM, first compound 3 µM). The viability, T/C by setting is: (second compound 3.16 µM, first compound 0.00949 µM) 90.3%; (second compound 3.16 µM, first compound 0.03 µM) 83.3%; (second compound 3.16 µM, first compound 0.0949 µM) 82.3%; (second compound 3.16 µM, first compound 0.3 µM) 69.1%; (second compound 3.16 µM, first compound 0.949 µM) 53.2%; (second compound 3.16 µM, first compound 3 µM) 40.4%. Moreover, the viability, T/C by setting is: (second compound 10 µM, first compound 0.00949 µM) 90.8%; (second compound 10 µM, first compound 0.03 µM) 80.1%; (second compound 10 µM, first compound 0.0949 µM) 80.5%; (second compound 10 µM, first compound 0.3 µM) 74.8%; (second compound 10 µM, first compound 0.949 µM) 55%; (second compound 10 µM, first compound 3 µM) 40.2%.

Consider `CCc1cc2c(N3CCc4c(cc(Cn5ccnc5)cc4-c4cn(C)nc4C(F)(F)F)C3=O)ccnc2c(OC)n1`, for which the viability, T/C (compound 0.0316 µM) was 96.6% and 87.7% and 94.8%; the viability, T/C (compound 0.1 µM) was 100% and 94.5% and 93.2%; the viability, T/C (compound 0.316 µM) is 102% and 101% and 87.4%; the viability, T/C (compound 1 µM) is 101% and 95% and 96%; the viability, T/C (compound 3.16 µM) was 107% and 95% and 90.8%; the viability, T/C (compound 10 µM) is 94.8% and 89.2% and 94.2%. In addition, the IC50 (curve of compound) is above 10000 nM.

As to `O=C(c1cc(Cc2n[nH]c(=O)c3ccccc23)ccc1F)N1CCN(C(=O)C2CC2)CC1`, the viability, T/C (compound 0.0316 µM) is 88.1% and 67.6% and 87.6%. The IC50 (curve of compound) was above 10000 nM.

As for `COc1cccc(OCCCN)c1-c1cc(Nc2cnc(C#N)cn2)n[nH]1`, the viability, T/C reads like this: (compound 0.00316 µM) 99.5% and 95.1% and 102%; (compound 0.01 µM) 88.5% and 89.2% and 81.1%; (compound 0.0316 µM) 73.2% and 77.3% and 77.8%; (compound 0.1 µM) 55.3% and 76.4% and 78.8%; (compound 0.316 µM) 30.3% and 45.7% and 50.2%; (compound 1 µM) 18.1% and 20.9% and 23%. For the same compound, the concentration for half-maximal inhibition (IC50) (curve of compound) is 118 nM and 296 nM and 345 nM.

As for `Nc1ccn(C2OC(CO)C(O)C2(F)F)c(=O)n1` (stereo not given) + COC1C(OC(N)=O)C(O)C(Oc2ccc3c(O)c(NC(=O)c4ccc(O)c(CC=C(C)C)c4)c(=O)oc3c2C)OC1(C)C, the 50% inhibitory concentration (IC50) is 488 nM under setting [1]; 477 nM under setting [2]; 422 nM under setting [3]; 395 nM under setting [4]; 450 nM under setting [5]; 411 nM under setting [6]. In addition, the viability, T/C amounted to 81.3% (second compound 0.0316 µM, first compound 0.0316 µM); 74.4% (second compound 0.0316 µM, first compound 0.1 µM); 55.7% (second compound 0.0316 µM, first compound 0.316 µM); 39.5% (second compound 0.0316 µM, first compound 1 µM); 29.8% (second compound 0.0316 µM, first compound 3.16 µM); 25.6% (second compound 0.0316 µM, first compound 10 µM). For the same compound, the viability, T/C was 82.2% (second compound 0.1 µM, first compound 0.0316 µM); 74.3% (second compound 0.1 µM, first compound 0.1 µM); 54.4% (second compound 0.1 µM, first compound 0.316 µM); 39.4% (second compound 0.1 µM, first compound 1 µM); 33% (second compound 0.1 µM, first compound 3.16 µM); 25.3% (second compound 0.1 µM, first compound 10 µM). The viability, T/C (second compound 0.316 µM, first compound 0.0316 µM) was found to be 86.1%; the viability, T/C (second compound 0.316 µM, first compound 0.1 µM) was found to be 76.2%; the viability, T/C (second compound 0.316 µM, first compound 0.316 µM) turned out to be 52.8%; the viability, T/C (second compound 0.316 µM, first compound 1 µM) came out at 37.5%; the viability, T/C (second compound 0.316 µM, first compound 3.16 µM) worked out at 33%; the viability, T/C (second compound 0.316 µM, first compound 10 µM) was determined as 25.6%. The viability, T/C (second compound 1 µM, first compound 0.0316 µM) was 81.2%; the viability, T/C (second compound 1 µM, first compound 0.1 µM) was determined as 77.7%; the viability, T/C (second compound 1 µM, first compound 0.316 µM) came out at 49.2%; the viability, T/C (second compound 1 µM, first compound 1 µM) was determined as 39.5%; the viability, T/C (second compound 1 µM, first compound 3.16 µM) is 32.6%; the viability, T/C (second compound 1 µM, first compound 10 µM) amounted to 25%. In addition, the viability, T/C runs as follows: (second compound 3.16 µM, first compound 0.0316 µM) 84.5%; (second compound 3.16 µM, first compound 0.1 µM) 73.8%; (second compound 3.16 µM, first compound 0.316 µM) 54.7%; (second compound 3.16 µM, first compound 1 µM) 38.5%; (second compound 3.16 µM, first compound 3.16 µM) 31.2%; (second compound 3.16 µM, first compound 10 µM) 26.7%. Moreover, the viability, T/C was determined as 83.1% (second compound 10 µM, first compound 0.0316 µM); 70% (second compound 10 µM, first compound 0.1 µM); 53% (second compound 10 µM, first compound 0.316 µM); 38.8% (second compound 10 µM, first compound 1 µM); 31.6% (second compound 10 µM, first compound 3.16 µM); 26% (second compound 10 µM, first compound 10 µM).

For orientation: IC50 means the concentration that inhibits the measured activity by half. The term viability, T/C denotes the ratio of treated to control.
